According to patent publication US20050002876A1, “Oral care methods and products” (priority 2003, published 2005):

Test system: human umbilical vein endothelial cells (HUVEC)
Test: Copper-induced IL-8 release from HUVEC (IL-8 ELISA)
Format: cell-based

SMILES | IL-8 secretion as compared to controls incubated with water (50 μM CuCl2, 24 hours) | IL-8 secretion caused by CuCl2 (50 μM CuCl2 + 50, 100, 150 or 250 μM Syprine trientine hydrochloride, 24 hours, serum-free medium)
[Cl][Cu][Cl] [CuCl2] | > 2 fold | –
NCCNCCNCCN [trientine, N,N′-bis(2-aminoethyl)-1,2-ethanediamine] | – | significantly inhibited copper-induced endothelial cell IL-8 secretion
